Patent US11166894B2, “Shampoo compositions comprising a chelant” (The Procter & Gamble Company, priority 2016, dated 2021)
Entries after “also recorded” stand apart in the source; their conditions may differ.

What was measured:
[1] = Copper on hair after repeat shampoo wash cycles (ICP-OES), versus shampoo without chelant; details: for Copper Removing Performance from Shampoo: clarifying shampoo containing the chelant, 20 cycles, copper content of hair compared to shampoo without the chelant; for reduction/removal of copper on hair compared to shampoo without chelant (in words): 10 shampoo cycles; for reduction/removal of copper on hair compared to control shampoo (in words): 20 shampoo cycles, clarifying shampoo; for reduces copper by: shampoo composition containing 0.1 wt % chelant, 20 cleaning cycles, compared to shampoo without the chelant
Description: The copper removing performance of the shampoo composition is determined by treating hair with clarifying shampoo containing the corresponding chelant for 20 cycles and comparing the copper content of the hair compared to the same treatment using shampoo without the chelant.
(§1) All testing are performed on colored hair switches (see Method of Measurement of Copper on Hair below) weighing approximately […] and having a length of approximately 6 inches. The hair switches are commercially available from IHIP (International Hair Importers). Three hair switches per sampoo composition are used. An amount of […] of shampoo is spread via a syringe onto separate hair switch. That is, the dosage is 0.10 g of shampoo per g of hair. Each application consists of adding shampoo to the hair, milking for 30 seconds followed by rinsing for 30 seconds. Shampoo is then reapplied (0.1 g/g), milked for 30 seconds and rinsed for 30 seconds. Excess water is squeezed from the hair switches and left to air dry or treated with a rinse-off conditioner and/or a leave-on treatment composition. This protocol is repeated for a number of times/cycles (as indicated in the tables below, which describe the details of hair treatments).
The following test method is used to assess the ability of the compositions and regimens to remove copper from the hair and to inhibit copper deposition onto the hair.
Hair switches are colored once with an oxidative hair colorant. An extra blonde shade is used for the testing. The hair switches are washed for 10 or 20 repeat wash cycles in tap water containing 7 grains per gallon water hardness (Ca/Mg) and 0.06 μg/g copper ions. Each wash cycle consists of two applications of 0.1 g/g a shampoo to the hair switches. Each application consists of adding shampoo to the hair, milking for 30 secs followed by rinsing for 30 secs. Shampoo is then reapplied 0.1 g/g, milked for 30 secs, rinsed for 30 secs and then dried in a heat box (60° C.) until dry.
Samples of 100 mg of hair are digested overnight with 2 ml of high purity concentrated nitric acid. The digestive mixture also contains 150 μL of 100 μg/g Yttrium internal standard (Inorganic Ventures, Christianburg, Va., USA). Following digestion, samples are heated to 70-80° C. for one hour, cooled to room temperature and diluted to 15 mL with deionized water. Copper content of the hair switches is determined by inductively coupled plasma atomic spectroscopy (ICP-OES)). For each leg, 3 different samples are analyzed.
In order to minimize the variability of the resulting copper content on hair that is related to (a) lot-to-lot viariability due to hair switches and (b) day-to-day variability of the water used during shampoo and conditioner treatments, a single lot of hair switches is used for each experimental series and a separate control experiment/treatment is run for each experimental series (see below).

[2] = log of formation constant of complex with copper; cited from earlier work
[3] = log P, n-octanol/water partition coefficient; type: physicochemical
Excerpt: The term log P is the n-octanol/water partition coefficients of the material.
The copper to be removed is inside the hair and the chelant needs to penetrate inside hair and form a strong copper-chelant complex. This copper-chelant complex needs to be water soluble and thus easily removed during the rinsing process. […] These are log P, the octanol/water partitioning coefficient, and the molecular weight of the chelant. Both are related to the ability of the chelant to penetrate into hair and also form a water soluble copper-chelant complex

[4] = Copper on hair after regimen cycles of shampoo, rinse-off conditioner and leave-on treatment (ICP-OES); details: 20 conditioning shampoo/rinse-off conditioner/leave-on treatment regimen cycles
Description: as §1
The following test method is used to assess the ability of the compositions and regimens to remove copper from the hair and to inhibit copper deposition onto the hair. […]
Samples of 100 mg of hair are digested overnight with 2 ml of high purity concentrated nitric acid. […] Copper content of the hair switches is determined by inductively coupled plasma atomic spectroscopy (ICP-OES)). For each leg, 3 different samples are analyzed. […]

NCCCNCCCNCCCN [1,5,9,13-Tetraazatridecane]
Copper Removing Performance from Shampoo [1]: 15% | Log KML Cu [2]: 17.1 | logP [3]: -2.1

NCCNCCNCCN [2,3-Triethylenetetramine]
reduction/removal of copper on hair compared to shampoo without chelant (in words) [1]: significant reduction of copper content on hair | reduction/removal of copper on hair compared to control shampoo (in words) [1]: effective removal of copper from hair; also recorded: more effective treatements | Copper Removing Performance from Shampoo [1]: 70% | Log KML Cu [2]: 20.1 | logP [3]: -2.3 | removal of copper from hair compared to control regimen (in words) [4]: effective removal of copper from hair

NCCNCCNCCNCCN [2,4-Tetraethylenepentamine]
reduction/removal of copper on hair compared to control shampoo (in words) [1]: more effective treatements | Copper Removing Performance from Shampoo [1]: 60% | Log KML Cu [2]: 22.8 | logP [3]: -2.7

CC(O)CN(CCN(CC(C)O)CC(C)O)CC(C)O (stereo not shown) [Ethylenedinitrilotetrapropan-2-ol]
reduction/removal of copper on hair compared to control shampoo (in words) [1]: effective removal of copper from hair | Copper Removing Performance from Shampoo [1]: 30% | Log KML Cu [2]: 9.8 | Log P [3]: −0.2

O=C(O)CN(CCO)CC(=O)O [N-(2-hydroxyethyl)iminodiacetic acid]
reduces copper by [1]: 30%

CC(O)CN(CCN(CC(C)O)CC(C)O)CCN(CC(C)O)CC(C)O (stereo not shown) [Pentrol]
Log P [3]: −0.2

OCCN(CCO)CCN(CCO)CCN(CCO)CCN(CCO)CCN(CCO)CCO [Tetraethylenepentaamine-(1-EO)]
logP [3]: -2.9

NCCN(CCN)CCN [Tris(2-aminoethyl)amine]
reduction/removal of copper on hair compared to shampoo without chelant (in words) [1]: effective removal of copper from hair | Copper Removing Performance from Shampoo [1]: 45% | Log KML Cu [2]: 18.8 | logP [3]: -2.2

O=C(O)CNCC(=O)O [iminodiacetic acid]
reduces copper by [1]: 40%
